Experimental data published in patent US20080167363A1, “Modulation of Neurogenesis By Melatoninergic Agents” (BrainCells, Inc, priority 2006, published 2008).
Several values for one entry are separate records, joined by “and”; a condition that tells them apart may be missing. Identical values can stand only once.

Key:
mGluR2 = mGluR2 (Homo sapiens, UniProt Q14416); conditions: antagonist; cited from earlier work
[1] = tested on: Group I or Group III receptors; conditions: at sub-mM concentrations; cited from earlier work
mGluR3 = mGluR3 (Homo sapiens, UniProt Q14832); conditions: antagonist; cited from earlier work
[2] = tested on: Human neural stem cells (hNSCs); experiment: Neuronal differentiation of human neural stem cells (TUJ-1 staining); assay type: cell-based; conditions: for maximum neuronal differentiation percent of positive control: basal media values subtracted
Description: Human neural stem cells (hNSCs) were isolated and grown in monolayer culture, plated, treated with varying concentrations of the melatonin agonist ramelteon and stained with TUJ-1 antibody, as described in U.S. Provisional Application No. 60/697,905 (incorporated by reference). Mitogen-free test media with a positive control for neuronal differentiation was used along with basal media without growth factors as a negative control. […] Provisional Application No. 60/697,905 (incorporated by reference). Mitogen-free test media with a positive control for neuronal differentiation was used along with basal media without growth factors as a negative control. Human neural stem cells (hNSCs) were isolated and grown in monolayer culture, plated, treated with varying concentrations of captopril and/or melatonin (test compounds), and stained with TUJ-1 antibody, as described in U.S. Provisional Application No. 60/697,905 (incorporated by reference). Mitogen-free test media with a positive control for neuronal differentiation was used along with basal media without growth factors as a negative control. Human neural stem cells (hNSCs) were isolated and grown in monolayer culture, plated, treated with varying concentrations of serotonin (5-HT) and/or melatonin (test compounds), and stained with TUJ-1 antibody, as described in U.S. Provisional Application No. 60/697,905 (incorporated by reference). Mitogen-free test media with a positive control for neuronal differentiation was used along with basal media without growth factors as a negative control. Human neural stem cells (hNSCs) were isolated and grown in monolayer culture, plated, treated with varying concentrations of buspirone in the presence or absence of the melatonin agonist melatonin, and stained with TUJ-1 antibody, as described in U.S. Provisional Application No. 60/697,905 (incorporated by reference). Mitogen-free test media with a positive control for neuronal differentiation was used along with basal media without growth factors as a negative control. Human neural stem cells (hNSCs) were isolated and grown in monolayer culture, plated, treated with varying concentrations of buspirone in the presence or absence of the melatonin agonist ramelteon, and stained with TUJ-1 antibody, as described in U.S. Provisional Application No. 60/697,905 (incorporated by reference). Mitogen-free test media with a positive control for neuronal differentiation was used along with basal media without growth factors as a negative control. Human neural stem cells (hNSCs) were isolated and grown in monolayer culture, plated, treated with varying concentrations of the melatonin […] and stained with TUJ-1 antibody, as described in U.S. Provisional Application No. 60/697,905 (incorporated by reference). Mitogen-free test media with a positive control for neuronal differentiation was used along with basal media without growth factors as a negative control. Human neural stem cells (hNSCs) were isolated and grown in monolayer culture, plated, treated with varying concentrations of the melatonin […] and stained with TUJ-1 antibody, as described in U.S. Provisional Application No. 60/697,905 (incorporated by reference). Mitogen-free test media with a positive control for neuronal differentiation was used along with basal media without growth factors as a negative control. Human neural stem cells (hNSCs) were isolated and grown in monolayer culture, plated, treated with varying concentrations of the melatonin agonist agomelatine and stained with TUJ-1 antibody, as described in U.S. Provisional Application No. 60/697,905 (incorporated by reference). Mitogen-free test media with a positive control for neuronal differentiation was used along with basal media without growth factors as a negative control. The presence of synergy was determined by use of a combination index (CI). […]

human mGlu2 receptors = human mGlu2 receptors (Homo sapiens, UniProt Q14416); conditions: agonist, in vitro; cited from earlier work
human mGlu3 receptors = human mGlu3 receptors (Homo sapiens, UniProt Q14832); conditions: agonist, in vitro; cited from earlier work
Male F344 rats [3] = experiment: Novelty suppressed feeding assay (latency to eat); assay type: in vivo, rat; conditions: 0.5 mg/kg buspirone and/or 3.0 mg/kg melatonin, i.p., 1x per day for 21 days
Experimental: Male F344 rats were dosed 1× per day for 21-days with 0 (vehicle only) 0.5 mg/kg buspirone (n=12 per dose group, i.p.) 3.0 mg/kg melatonin (n=12 per dose group, i.p.) or the combination of the two drugs at the same doses. […] Results shown in this figure indicate the mean latency to approach and eat a food pellet within the novel environment. Data are presented as latency to eat expressed as percent baseline.
Male F344 rats were dosed 1× per day for 21-days with 0 (vehicle only), 0.5 mg/kg buspirone (n=12 per dose group, i.p.), 3.0 mg/kg melatonin (n=12 per dose group, i.p.), or the combination of the two drugs at the same doses. Twenty-four hours prior to behavioral testing, all food is removed from the home cage. At the time of testing a single pellet is placed in the center of a novel arena. Animals are placed in the corner of the arena and the latency (in time) to eat the pellet is recorded. […] Animals receive compound daily for 21 days and testing is performed on day 21. A decreased latency to eat the food pellet is indicative of both neurogenesis and antidepressant activity.

[4] = tested on: Human neural stem cells (hNSCs); experiment: Astrocyte differentiation of human neural stem cells (GFAP staining); assay type: cell-based; conditions: agent alone; for EC50: Homo sapiens, Neural stem cell, percent of astrocyte positive control, basal media subtracted
Description: Human neural stem cells (hNSCs) were isolated and grown in monolayer culture, plated, treated with varying concentrations of buspirone in the presence or absence of the melatonin agonist melatonin, and stained with an antibody for the detection of the astrocyte marker GFAP, as described in U.S. Provisional Application No. 60/697,905 (incorporated by reference). Mitogen-free test media with a positive control for astrocyte differentiation was used along with basal media without growth factors as a negative control. Human neural stem cells (hNSCs) were isolated and grown in monolayer culture, plated, treated with varying concentrations of buspirone in the presence or absence of the melatonin agonist ramelteon, and stained with an antibody for the detection of the astrocyte marker GFAP, as described in U.S. Provisional Application No. 60/697,905 (incorporated by reference). Mitogen-free test media with a positive control for astrocyte differentiation was used along with basal media without growth factors as a negative control.

Male F344 rats [5] = experiment: In vivo neurogenesis (BrdU positive cells in dentate gyrus); set-up: species or system rat; conditions: 0.5 mg/kg buspirone and/or 3.0 mg/kg melatonin, i.p., 1x per day for 28 days; compared to vehicle
Experimental: (§1) Male F344 rats were dosed 1× per day for 28-days with 0 (vehicle only), 0.5 mg/kg buspirone (n=12 per dose group, i.p.), 3.0 mg/kg melatonin (n=12 per dose group, ip) or the combination of the two drugs at the same doses. BrdU was administered once daily between days 9 and 14 (100 mg/kg/day, i.p., n=12 per dose group). […] Data are presented as percent change in BrdU positive cells per cubic mm dentate gyrus.
as §1, with “For the in vivo neurogenesis assays, male” for “Male”

[6] = tested on: KA, AMPA, and NMDA iGlu receptors; conditions: cited from earlier work
[7] = Homo sapiens, Neural stem cell, agent alone, concentration response curve, percent of neuronal positive control, basal media subtracted, read-out: EC50, neuronal differentiation

Chain of mGluR2 (Q14416 19-872): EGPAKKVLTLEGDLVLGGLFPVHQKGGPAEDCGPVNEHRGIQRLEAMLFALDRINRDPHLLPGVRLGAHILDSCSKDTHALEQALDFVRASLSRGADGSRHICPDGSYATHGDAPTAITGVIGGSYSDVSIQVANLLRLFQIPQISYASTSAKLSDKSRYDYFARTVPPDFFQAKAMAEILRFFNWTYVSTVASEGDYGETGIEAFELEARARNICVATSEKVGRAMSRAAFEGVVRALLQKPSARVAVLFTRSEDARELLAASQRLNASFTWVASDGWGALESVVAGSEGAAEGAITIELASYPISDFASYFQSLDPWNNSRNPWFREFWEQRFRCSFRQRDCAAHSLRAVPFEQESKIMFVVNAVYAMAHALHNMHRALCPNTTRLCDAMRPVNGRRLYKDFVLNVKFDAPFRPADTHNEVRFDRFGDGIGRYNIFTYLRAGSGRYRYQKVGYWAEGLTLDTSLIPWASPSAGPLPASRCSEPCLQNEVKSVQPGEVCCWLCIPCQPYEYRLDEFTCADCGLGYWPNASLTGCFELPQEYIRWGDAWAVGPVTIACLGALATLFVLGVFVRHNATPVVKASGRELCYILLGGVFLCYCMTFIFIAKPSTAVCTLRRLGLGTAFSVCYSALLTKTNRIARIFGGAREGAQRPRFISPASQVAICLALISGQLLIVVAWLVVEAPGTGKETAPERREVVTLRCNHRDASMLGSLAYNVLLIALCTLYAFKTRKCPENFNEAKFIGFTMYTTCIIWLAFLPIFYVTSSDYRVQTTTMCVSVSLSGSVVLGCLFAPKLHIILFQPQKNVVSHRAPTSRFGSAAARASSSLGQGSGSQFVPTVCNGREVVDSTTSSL
Chain of human mGlu2 receptors (Q14416 19-872): as above
Chain of mGluR3 (Q14832 23-879): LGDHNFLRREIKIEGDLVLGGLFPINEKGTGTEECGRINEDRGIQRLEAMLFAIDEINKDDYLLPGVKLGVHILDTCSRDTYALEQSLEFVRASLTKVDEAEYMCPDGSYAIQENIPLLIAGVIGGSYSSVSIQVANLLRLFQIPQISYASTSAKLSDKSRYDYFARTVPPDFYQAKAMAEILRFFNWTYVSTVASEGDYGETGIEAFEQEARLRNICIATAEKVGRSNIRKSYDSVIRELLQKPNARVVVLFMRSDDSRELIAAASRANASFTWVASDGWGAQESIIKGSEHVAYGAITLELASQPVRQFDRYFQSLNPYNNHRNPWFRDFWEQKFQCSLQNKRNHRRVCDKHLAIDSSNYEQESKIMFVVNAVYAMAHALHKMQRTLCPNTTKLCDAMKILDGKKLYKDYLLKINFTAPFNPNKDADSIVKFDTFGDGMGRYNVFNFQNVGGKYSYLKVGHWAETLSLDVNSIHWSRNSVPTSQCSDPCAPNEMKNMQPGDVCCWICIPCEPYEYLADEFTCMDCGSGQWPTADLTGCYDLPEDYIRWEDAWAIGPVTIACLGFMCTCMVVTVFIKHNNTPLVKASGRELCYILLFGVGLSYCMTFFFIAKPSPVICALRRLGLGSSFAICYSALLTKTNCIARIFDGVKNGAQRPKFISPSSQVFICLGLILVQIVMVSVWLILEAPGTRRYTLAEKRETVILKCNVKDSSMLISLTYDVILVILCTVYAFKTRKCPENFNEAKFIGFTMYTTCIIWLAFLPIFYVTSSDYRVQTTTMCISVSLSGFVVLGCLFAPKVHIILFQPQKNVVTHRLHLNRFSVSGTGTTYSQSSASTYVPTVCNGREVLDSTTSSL
Chain of human mGlu3 receptors (Q14832 23-879): as above

NC1(C(=O)O)CCc2cc(P(=O)(O)O)ccc21 (racemic) [APICA, (RS)-1-amino-5-phosphonoindan-1-carboxylic acid]
IC50 (mGluR2): ~30 µM
activity against Group I or Group III receptors [1]: no appreciable activity
IC50 (mGluR3): ~30 µM

NCCc1c[nH]c2ccc(O)cc12 [serotonin, 5-hydroxytryptamine]
EC50 [2, 7]: 7.4 µM

COC(=O)Nc1ccc2[nH]cc(CCNC(C)=O)c2c1 [GR 135,531, 5-Methoxy-carbonylamino-N-acetyl-tryptamine]
EC50 ([2]; Homo sapiens, Neural stem cell, read-out: EC50, neuronal differentiation): 0.24 µM
maximum neuronal differentiation percent of positive control ([2]; agent alone): 59%

N[C@@]1(C(=O)O)CO[C@H]2[C@H](C(=O)O)[C@H]21 [LY379268, (−)-2-Oxa-4-aminobicyclohexane-4,6-dicarboxylic acid]
EC50 (human mGlu2 receptors): < 0.01 µM
EC50 (human mGlu3 receptors): < 0.01 µM

COc1ccc2[nH]cc(CCNC(C)=O)c2c1 [melatonin]
EC50 [2, 7]: > 31.6 µM
EC50 ([2]; Homo sapiens, Neural stem cell, agent alone, extrapolated beyond highest tested concentration 31.6 μM, read-out: EC50, neuronal differentiation, estimated by extrapolation): ~49.7 µM
latency to eat the food pellet (percent baseline) (Male F344 rats [3]): did not significantly reduce
EC50 [4]: > 31.6 µM
effect on astrogenesis [4]: no astrogenesis
effect on astrogenesis ([4]; listed as Melatonin): no effect
BrdU positive cells per cubic mm dentate gyrus (percent change) (Male F344 rats [5]): did not significantly change

O=C1CC2(CCCC2)CC(=O)N1CCCCN1CCN(c2ncccn2)CC1 [buspirone]
EC50 [2, 7]: 4.7 µM
maximum neuronal differentiation percent of positive control ([2]; agent alone): 62%
latency to eat the food pellet (percent baseline) (Male F344 rats [3]): did not significantly reduce
EC50 [4]: 5.7 µM
maximum astrocyte differentiation relative to positive control [4]: 60% and 59%
BrdU positive cells per cubic mm dentate gyrus (percent change) (Male F344 rats [5]): did not significantly change

CC(=O)NCCc1c(Cc2ccccc2)[nH]c2ccccc12 [Luzindole]
EC50 [2, 7]: 9.8 µM
maximum neuronal differentiation percent of positive control ([2]; agent alone): 86%

COc1ccc2cccc(CCNC(C)=O)c2c1 [Agomelatine]
EC50 [2, 7]: 8.7 µM
maximum neuronal differentiation percent of positive control ([2]; agent alone): 42%

CCC(=O)NC1Cc2ccccc2C(c2ccccc2)C1 (centres unmarked) [4-P-PDOT]
maximum neuronal differentiation percent of positive control ([2]; agent alone): 51%
EC50 ([2]; agent alone, extrapolated beyond highest tested concentration 31.6 μM, read-out: EC50, neuronal differentiation, estimated by extrapolation): 33.7 µM

N[C@](CC1c2ccccc2Oc2ccccc21)(C(=O)O)[C@H]1C[C@@H]1C(=O)O [LY341495, (2S)-2-amino-2-(1S,2S-2-carboxycycloprop-1-yl)-3-(xanth-9-yl) propanoic acid]
activity against KA, AMPA, and NMDA iGlu receptors [6]: substantially inactive

C[C@H](CS)C(=O)N1CCC[C@H]1C(=O)O [captopril]
EC50 [2, 7]: 3.8 µM

CCC(=O)NCC[C@@H]1CCc2ccc3c(c21)CCO3 [Ramelteon]
EC50 [2, 7]: 8.1 µM
maximum neuronal differentiation percent of positive control ([2]; agent alone): 45%
effect on astrogenesis [4]: no astrogenesis
